Tested on: finishing pigs
Test: Growth performance and carcass composition of finishing pigs
Format: in vivo, pig
Details: for lb FFL: fat free lean; for L side / R side: carcass; for lbs FFL/D: fat free lean gain per day
Excerpt: Pigs were blocked by weight and allotted to one of four treatments with ten replicate pens per treatment. Pigs were housed with one pig per pen in an environmentally controlled finishing barn with 4 ft×4 ft slatted pens.
All animals were fed a corn-soybean meal diet with 1% corn oil. […] Final SARM concentrations were 1, 3, and 10 ppm. All animals were fed their respective diets for the duration of the study.
Pigs were allowed ad libitum access to feed and water. Pigs and feeders were weighed on day 7, 14, 21, and 28 to calculate average daily gain (ADG), average daily feed intake (ADFI), and feed-to-gain ratio (F/G or F:G). Each pen served as an experimental unit for all statistical analysis.
Pigs were slaughtered at the Kansas State University Meats Laboratory at the end of the study for collection of individual carcass data. At 24 hours postmortem, the right side of the carcass was frozen at −40° C. for approximately […]. After freezing, sides were ground once through a grinder equipped with a 19 mm die, then mixed and ground through a second grinder equipped with a 9.5 mm die. A sub sample of ground carcass was then chemically analyzed to determine percentages of crude protein, moisture/dry matter, lipid, and ash. Carcass measurements were done on the left side of the carcass, and a sample of lean and fat was taken from the longissimus at approximately the 10th rib.
The data were analyzed as a randomized complete-block design. Analysis of variance was performed by using the MIXED procedure of SAS. Linear and quadratic contrasts were used to evaluate the effects of increasing the level of the SARM on growth and carcass performance.

## C[C@](O)(COc1ccc(Cl)c(F)c1)C(=O)Nc1ccc(C#N)c(C(F)(F)F)c1 [S-II, (S)-3-(4-chloro-3-fluorophenoxy)-N-(4-cyano-3-(trifluoromethyl)phenyl)-2-hydroxy-2-methylpropanamide]
1 PPM
  Carcass Wt: 201
  Live Wt: 289
  L side: 98.0
  R side: 103
  lbs FFL/D: 0.822 lbs/D
3 PPM
  Carcass Wt: 200
  Live Wt: 288
  L side: 97.7
  R side: 102
  lbs FFL/D: 0.774 lbs/D
10 PPM
  Carcass Wt: 197
  Live Wt: 281
  L side: 96.8
  R side: 99.8
  lbs FFL/D: 0.814 lbs/D
Day 0-7, 1 ppm in diet
  ADFI (average daily feed intake): 7.56
  ADG (average daily gain): 2.89
Day 0-7, 3 ppm in diet
  ADFI (average daily feed intake): 7.54
  ADG (average daily gain): 2.37
Day 0-7, 10 ppm in diet
  ADG (average daily gain): 2.17
Day 0-7, 10 ppm in diet, listed as SARM
  ADFI (average daily feed intake): 7.4
Day 0-28 (total), 1 ppm in diet
  ADG (average daily gain): 2.74
Day 0-28 (total), 3 ppm in diet, listed as SARM
  ADG (average daily gain): 2.7
Day 0-28 (total), 10 ppm in diet, listed as SARM
  ADG (average daily gain): 2.5
Day 0-28, 1 ppm in diet
  ADFI (average daily feed intake): 8.28
Day 0-28, 3 ppm in diet
  ADFI (average daily feed intake): 8.38
Day 0-28, 10 ppm in diet
  ADFI (average daily feed intake): 7.85
Day 8-14, 1 ppm in diet
  ADFI (average daily feed intake): 8.74
  ADG (average daily gain): 2.59
Day 8-14, 3 ppm in diet
  ADG (average daily gain): 2.65
Day 8-14, 3 ppm in diet, listed as SARM
  ADFI (average daily feed intake): 8.5
Day 8-14, 10 ppm in diet
  ADFI (average daily feed intake): 7.89
  ADG (average daily gain): 2.37
Day 15-21, 1 ppm in diet
  ADFI (average daily feed intake): 8.33
  ADG (average daily gain): 2.33
Day 15-21, 3 ppm in diet
  ADFI (average daily feed intake): 8.61
  ADG (average daily gain): 2.65
Day 15-21, 10 ppm in diet
  ADFI (average daily feed intake): 7.78
  ADG (average daily gain): 2.43
Day 22-28, 1 ppm in diet
  ADFI (average daily feed intake): 8.51
  ADG (average daily gain): 3.15
Day 22-28, 3 ppm in diet
  ADFI (average daily feed intake): 8.89
  ADG (average daily gain): 3.15
Day 22-28, 10 ppm in diet
  ADFI (average daily feed intake): 8.33
  ADG (average daily gain): 3.03
Days 0-7, 1 PPM
  Gain: 20.3
Days 0-7, 3 PPM
  Gain: 16.6
Days 0-7, 10 PPM
  Gain: 15.2
Days 8-14, 1 PPM
  Gain: 18.2
Days 8-14, 3 PPM
  Gain: 18.6
Days 8-14, 10 PPM
  Gain: 16.6
Days 15-21, 1 PPM
  Gain: 16.3
Days 15-21, 3 PPM
  Gain: 18.5
Days 15-21, 10 PPM
  Gain: 17.0
Days 22-28, 1 PPM
  Gain: 22.0
Days 22-28, 3 PPM
  Gain: 22.0
Days 22-28, 10 PPM
  Gain: 21.2
FIG. 5A
  average daily gain (ADG) over the course of the study, trend: increased
FIG. 5C
  fat free lean gain per day, trend: increased
FIG. 5D
  ADG for days 21-28, trend: dramatically increased
SARM-treated pigs vs control
  improvement in lean percent: ≤ 2%
  improvement in pounds of fat free lean: ≤ 2%
  increase in loin eye area (LEA): ≤ 4%
Table 6, 1 ppm
  1st rib fat: 1.47 in
  10th rib fat: 0.78 in
  Dress: 69.6%
  Fat free lean: 106.9 lb
  Heart Wt: 1.04 lb
  Kidney Wt: 1.2 lb
  LEA: 7.26 in^2
  Last lumbar fat (row head printed only as 'in'): 0.77 in
  Last rib fat: 0.9 in
  Lean: 53.2%
  Liver Wt: 4.58 lb
Table 6, 3 ppm
  1st rib fat: 1.48 in
  10th rib fat: 0.8 in
  Dress: 69.3%
  Fat free lean: 105.5 lb
  Heart Wt: 1.07 lb
  Kidney Wt: 1.18 lb
  LEA: 7.22 in^2
  Last lumbar fat (row head printed only as 'in'): 0.82 in
  Last rib fat: 0.91 in
  Lean: 52.9%
  Liver Wt: 4.95 lb
Table 6, 10 ppm
  1st rib fat: 1.43 in
  10th rib fat: 0.74 in
  Dress: 70%
  Fat free lean: 106.7 lb
  Heart Wt: 1.01 lb
  Kidney Wt: 1.16 lb
  LEA: 7.59 in^2
  Last lumbar fat (row head printed only as 'in'): 0.74 in
  Last rib fat: 0.86 in
  Lean: 54.3%
  Liver Wt: 4.84 lb
Table 7, 1 PPM
  1st rib fat: 1.47
  10th rib fat: 0.780
  Dress %: 70%
  Heart Wt: 1.04
  Kidney Wt: 1.20
  Last lumbar fat: 0.770
  Last rib fat: 0.900
  Liver Wt: 4.58
  lb FFL: 107 lb
Table 7, 3 PPM
  1st rib fat: 1.48
  10th rib fat: 0.800
  Dress %: 69%
  Heart Wt: 1.07
  Kidney Wt: 1.18
  Last lumbar fat: 0.815
  Last rib fat: 0.905
  Liver Wt: 4.95
  lb FFL: 106 lb
Table 7, 10 PPM
  1st rib fat: 1.43
  10th rib fat: 0.735
  Dress %: 70%
  Heart Wt: 1.01
  Kidney Wt: 1.16
  Last lumbar fat: 0.740
  Last rib fat: 0.855
  Liver Wt: 4.84
  lb FFL: 107 lb
Table 7, loin eye area, 1 PPM
  LEA: 7.26
Table 7, loin eye area, 3 PPM
  LEA: 7.22
Table 7, loin eye area, 10 PPM
  LEA: 7.59
Linear contrast
  Day 0-7 F:G, effect of treatment: significantly increased
  Day 8-14 average daily feed intake (ADFI), effect of treatment: decreased
pig, in vivo
  carcass crude fat, effect of feeding: reducing
